Like-named read-outs stand apart in the source and are kept apart here.
Experiments:
[1] = molecular target: T1, α-glucosidase (Saccharomyces cerevisiae) (Saccharomyces cerevisiae, UniProt P53341); assay: biochemical
Description: (§3) α-Glucosidase inhibitor screening was conducted according to a previously reported procedure with slight modifications [20]. A measured amount of pNPG powder was dissolved at 2 mg/mL in 0.01 M phosphate buffer (pH = 6.8), and then 50 μL of the pNPG solution was mixed with an equal volume of isolated compounds from D. angustifolia Roxb, which were diluted to 4 mM. After being kept at 37 °C for 10 min, 25 μL of α-glucosidase (0.5 U/mL) was added. Following another 10 min incubation at 37 °C, the reaction was stopped with 125 μL of 0.2 M Na2CO3, and the absorbance at 410 nm of each sample (converted pNP) was measured via a microplate reader (BioTek ELX-800, USA).

[2] = molecular target: T1, α-glucosidase (Saccharomyces cerevisiae); assay: Kinetic test for α-glucosidase (Lineweaver–Burk)
Description: A measured amount of pNPG powder was dissolved at 2 mg/mL in 0.01 M phosphate buffer (pH = 6.8), and then 50 μL of the pNPG solution was mixed with an equal volume of isolated compounds from D. angustifolia Roxb, which were diluted to 4 mM. After being kept at 37 °C for 10 min, 25 μL of α-glucosidase (0.5 U/mL) was added. Following another 10 min incubation at 37 °C, the reaction was stopped with 125 μL of 0.2 M Na2CO3, and the absorbance at 410 nm of each sample (converted pNP) was measured via a microplate reader (BioTek ELX-800, USA). […] To acquire the inhibition type and related parameters of those inhibitors, kinetic assays were carried out, and the conditions of enzymatic reactions are detailed in the above section, in which the amount of enzymes was fixed. With an increasing amount of substrate, the amount of hydrolysed pNPG or starch in the presence of compounds (concentration gradient was established on the basis of their IC50 value) was quantified to create Lineweaver–Burk plots.

[3] = molecular target: T2, α-amylase (porcine pancreas) (Sus scrofa, UniProt P00690); assay: Kinetic test for α-amylase (Lineweaver–Burk); assay type: biochemical; design: purchased Sigma–Aldrich; host or cells: porcine pancreas; details: Lineweaver–Burk plots
T2 sequence (P00690 16-511): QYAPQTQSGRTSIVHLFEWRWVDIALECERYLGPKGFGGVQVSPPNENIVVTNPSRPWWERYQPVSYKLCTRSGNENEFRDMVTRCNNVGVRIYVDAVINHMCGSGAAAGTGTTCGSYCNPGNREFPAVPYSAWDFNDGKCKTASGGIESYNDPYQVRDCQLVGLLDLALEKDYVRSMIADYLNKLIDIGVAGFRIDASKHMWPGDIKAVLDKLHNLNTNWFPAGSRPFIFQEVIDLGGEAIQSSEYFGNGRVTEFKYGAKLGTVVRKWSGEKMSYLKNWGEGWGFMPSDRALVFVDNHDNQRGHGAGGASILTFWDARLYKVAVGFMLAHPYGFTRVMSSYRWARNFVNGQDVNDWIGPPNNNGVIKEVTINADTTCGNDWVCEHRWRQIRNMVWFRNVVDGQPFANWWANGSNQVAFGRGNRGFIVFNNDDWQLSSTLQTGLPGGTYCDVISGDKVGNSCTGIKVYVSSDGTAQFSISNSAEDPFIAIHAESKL
Description: (§1) Changes in α-amylase activities were quantitatively analysed via a method based on starch-iodine colorimetric detection. […] A mixture of 40 μL of starch solution and 40 μL of selected compounds was maintained at 37 °C for 10 min, and 80 μL α-amylase (5 U/mL) was added to start the reaction. After 30 min at 37 °C, terminations were achieved using 40 μL of 1 M HCl.

[4] = molecular target: T1, α-glucosidase (Saccharomyces cerevisiae); assay: Combined inhibition of acarbose and selected compounds against α-glucosidase (CompuSyn CI); assay type: biochemical; design: purchased Sigma–Aldrich; details: for Type of interaction with acarbose against α-glucosidase: CI >1.1 antagonistic, 0.9-1.1 additive, <0.9 synergistic; for CI values against α-glucosidase: combination with acarbose, over tested concentrations
Excerpt: (§2) A combination index (CI) was employed to evaluate the impacts of binary inhibitors on α-glucosidase and α-amylase. […] When the CI values were above 1.1, between 0.9 and 1.1, and below 0.9, the effects were defined as antagonistic, additive, and synergistic.

[5] = molecular target: T2, α-amylase (porcine pancreas); assay: Combined inhibition of acarbose and selected flavonoids against α-amylase (CompuSyn CI); assay type: biochemical; design: purchased Sigma–Aldrich; host or cells: porcine pancreas; details: CI >1.1 antagonistic, 0.9-1.1 additive, <0.9 synergistic
Description: as §1, §2

[6] = molecular target: T2, α-amylase (porcine pancreas); assay: α-Amylase inhibition assay (starch-iodine); details: for IC50 against α-amylase (result in words): in the test concentration range
Description: Changes in α-amylase activities were quantitatively analysed via a method based on starch-iodine colorimetric detection [21]. […] A mixture of 40 μL of starch solution and 40 μL of selected compounds was maintained at 37 °C for 10 min, and 80 μL α-amylase (5 U/mL) was added to start the reaction. After 30 min at 37 °C, terminations were achieved using 40 μL of 1 M HCl.

[7] = molecular target: T1, α-glucosidase (Saccharomyces cerevisiae); details: read-out: IC50 against α-glucosidase; in vitro, pNPG substrate, 37 °C, pH 6.8
Description: as §3

T1 sequence (P53341 whole entry): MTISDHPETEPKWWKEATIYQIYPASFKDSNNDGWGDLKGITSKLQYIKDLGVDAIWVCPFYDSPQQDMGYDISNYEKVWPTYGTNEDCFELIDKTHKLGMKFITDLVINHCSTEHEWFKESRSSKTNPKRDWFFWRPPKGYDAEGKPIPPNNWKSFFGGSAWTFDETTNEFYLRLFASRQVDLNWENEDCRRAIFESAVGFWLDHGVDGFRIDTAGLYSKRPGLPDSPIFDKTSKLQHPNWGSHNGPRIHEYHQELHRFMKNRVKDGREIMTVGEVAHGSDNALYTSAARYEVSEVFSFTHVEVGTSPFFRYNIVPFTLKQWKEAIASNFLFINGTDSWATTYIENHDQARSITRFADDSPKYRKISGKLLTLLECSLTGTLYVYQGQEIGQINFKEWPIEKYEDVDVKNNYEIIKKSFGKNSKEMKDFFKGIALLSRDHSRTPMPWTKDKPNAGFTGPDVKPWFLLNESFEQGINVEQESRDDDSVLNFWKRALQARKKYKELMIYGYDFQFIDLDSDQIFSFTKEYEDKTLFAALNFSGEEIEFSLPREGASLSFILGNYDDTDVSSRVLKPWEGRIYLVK

Compound: COc1cc(O)c2c(c1C)O[C@H](c1ccc(O)cc1)CC2 [Compound 5, (2S)-4′,5-Dihydroxy-7-methoxy-8-methylflavan]
- IC50 [1]: 240 ± 30 µM
- Ki [2]: 39.9 ± 8.47 µM
- Mode of inhibition (α-glucosidase) ([2]; Lineweaver–Burk plots): noncompetitive inhibitor

Compound: Cc1c(O)cc2c(c1O)C(=O)C(Cc1ccc(O)cc1)CO2 (centres unmarked) [Compound 8, 5,7-dihydroxy-6-methyl-3-(4′-hydroxybenzyl) chroman-4-one]
- IC50 [1]: 520 ± 10 µM
- Ki [3]: 14100 ± 3530 µM
- Mode of inhibition (α-amylase) [3]: Mixed
- Type of interaction with acarbose against α-glucosidase [4]: synergism
- CI values against α-glucosidase [4]: below 0.9
- Ki [2]: 11.2 ± 0.99 µM
- Mode of inhibition (α-glucosidase) ([2]; Lineweaver–Burk plots): Competitive
- Type of interaction with acarbose against α-amylase [5]: additive effects
- IC50 [6]: 5990 ± 60 µM

Compound: O=c1c(Cc2ccc(O)cc2)coc2cc(O)cc(O)c12 [Compound 9, 5,7-dihydroxy-3-(4′-hydroxybenzyl) chromone]
- IC50 [1]: 650 ± 10 µM
- Ki [3]: 8590 ± 1940 µM
- Mode of inhibition (α-amylase) [3]: Mixed
- Type of interaction with acarbose against α-glucosidase [4]: synergism
- CI values against α-glucosidase [4]: below 0.9
- Ki [2]: 54.4 ± 15.8 µM
- Mode of inhibition (α-glucosidase) ([2]; Lineweaver–Burk plots): Mixed
- Type of interaction with acarbose against α-amylase [5]: additive effects
- IC50 [6]: 2590 ± 50 µM

Compound: O=C(/C=C/c1ccc(O)cc1)NCCc1ccc(O)cc1 [Compound 18, trans-N-p-coumaroyltyramine]
- IC50 [1]: 1.99 ± 0.2 µM
- Ki [2]: 21.1 ± 12.2 µM
- Mode of inhibition (α-glucosidase) ([2]; Lineweaver–Burk plots): Uncompetitive

Compound: CCO[C@@H](c1ccc(O)c(OC)c1)[C@H](O)CO [Compound 22, erythro-7R,8S-7-O-ethylguaiacyl glycerol]
- IC50 [1]: 40 ± 4 µM
- Type of interaction with acarbose against α-glucosidase [4]: synergism
- CI values against α-glucosidase [4]: below 0.9
- Ki [2]: 7 ± 1.97 µM
- Mode of inhibition (α-glucosidase) ([2]; Lineweaver–Burk plots): Mixed
- IC50 against α-amylase (result in words) [6]: did not yield 50% inhibition

Compound: Cc1c(Cl)c(O)cc(O)c1Cl [Compound 24, 4,6-dichloro-5-methyl-benzene-1,3-diol]
- IC50 [1]: 780 ± 30 µM
- Type of interaction with acarbose against α-glucosidase [4]: moderate additive effects
- Ki [2]: 44 ± 0.88 µM
- Mode of inhibition (α-glucosidase) ([2]; Lineweaver–Burk plots): Mixed
- IC50 against α-amylase (result in words) [6]: did not yield 50% inhibition

Compound: (2S)-4′-hydroxy-5,7-dimethoxy-8-methylflavan [Compound 6]
- Ki [3]: 27500 ± 3510 µM
- Mode of inhibition (α-amylase) [3]: Mixed
- Type of interaction with acarbose against α-glucosidase [4]: slight antagonism
- CI (combination index) against α-glucosidase ([4]; highest concentration pair (about IC50), acarbose 5 mM, No.6/No.8 0.5 mM, No.9/No.24 1 mM, No.22 50 μM): 1.12
- Mode of inhibition (α-glucosidase) ([2]; Lineweaver–Burk plots): Mixed
- Ki ([2]; read-out: Ki (α-glucosidase), Lineweaver–Burk plots): 57.8 ± 1.67 µM
- IC50 [7]: 370 ± 20 µM
- Type of interaction with acarbose against α-amylase [5]: additive effects
- IC50 ([6]; read-out: IC50 against α-amylase, in vitro, starch-iodine method, 37 °C): 6030 ± 270 µM
